In ChEMBL document CHEMBL4007445, “Design, synthesis, and biological evaluation of imidazo[1,2-b]pyridazine derivatives as mTOR inhibitors” (Eur J Med Chem, 2017):
Calls of active or inactive are those of the source. The rule behind the calls is not given here.

Key:
A549 [1] = assay: Antiproliferative activity against human A549 cells after 72 hrs by SRB assay; assay type: functional, cell-based; settings: A549, 72 h
A-375 = assay: Antiproliferative activity against human A375 cells after 72 hrs by SRB assay; assay type: functional, cell-based; settings: A-375, 72 h
MCF7 = assay: Antiproliferative activity against human MCF7 cells after 72 hrs by SRB assay; assay type: functional, cell-based; settings: MCF7, 72 h
[2] = Antiproliferative activity against human U87 cells after 72 hrs by SRB assay; assay type: functional, cell-based, U-87MG ATCC; settings: U-87 MG
NCI-H460 = assay: Antiproliferative activity against human NCI-H460 cells after 72 hrs by SRB assay; assay type: functional, cell-based; settings: NCI-H460, 72 h
HEK293 = assay: Antiproliferative activity against HEK293 cells after 72 hrs by SRB assay; assay type: cell-based; settings: Homo sapiens, HEK293, 72 h
[3] = biological target: PI3-kinase p110-alpha/p85-alpha (Homo sapiens) (UniProt P27986+P42336); assay: Inhibition of human PI3K p110alpha/p85alpha at 10 uM using phosphatidylinositol 4,5-bisphosphate as substrate after 30 mins by HTRF assay relative to control; assay type: protein-complex assay
[4] = biological target: PI3K p110 beta/p85 alpha (Homo sapiens) (UniProt P27986+P42338); assay: Inhibition of human PI3K p110beta/p85alpha at 10 uM using phosphatidylinositol 4,5-bisphosphate as substrate after 30 mins by HTRF assay relative to control; assay type: protein-complex assay
[5] = biological target: Phosphatidylinositol 4,5-bisphosphate 3-kinase catalytic subunit gamma isoform (Homo sapiens) (UniProt P48736); assay: Inhibition of human PI3K p120gamma at 10 uM using phosphatidylinositol 4,5-bisphosphate as substrate after 30 mins by HTRF assay relative to control
[6] = biological target: PI3-kinase p110-delta/p85-alpha (Homo sapiens) (UniProt P27986+O00329); assay: Inhibition of human PI3K p110delta/p85alpha at 10 uM using phosphatidylinositol 4,5-bisphosphate as substrate after 30 mins by HTRF assay relative to control; assay type: protein-complex assay
[7] = biological target: PI3-kinase p110-alpha/p85-alpha (Homo sapiens, UniProt P42336); assay: Inhibition of human PI3K p110alpha/p85alpha using phosphatidylinositol 4,5-bisphosphate as substrate after 30 mins by HTRF assay; assay type: protein-complex assay
[8] = biological target: T1, Serine/threonine-protein kinase mTOR (Homo sapiens, UniProt P42345); assay: Inhibition of human N-terminal FLAG-tagged mTOR (1362-end residues) in presence of [gamma33P]ATP after 40 mins
[9] = biological target: T1, Serine/threonine-protein kinase mTOR; assay: Inhibition of mTOR in human A549 cells assessed as reduction in p70S6K phosphorylation at T389 residue after 2 hrs by HTRF method; assay type: cell-based
A549 [10] = assay: Inhibition of mTORC1 in human A549 cells assessed as reduction in S6 phosphorylation at […] residues at 5 uM up to 2 hrs by Western blot method; assay type: cell-based
A549 [11] = assay: Inhibition of mTORC2 in human A549 cells assessed as reduction in Akt phosphorylation at Ser-473 residue at 5 uM up to 2 hrs by Western blot method; assay type: cell-based
A549 [12] = assay: Cell cycle arrest in human A549 cells assessed as accumulation at G1 phase at 10 uM after 48 hrs by propidium iodide staining based flow cytometry (reference value: 40.21%); assay type: functional
A549 [13] = assay: Cell cycle arrest in human A549 cells assessed as accumulation at G2 phase at 10 uM after 48 hrs by propidium iodide staining based flow cytometry (reference value: 14.49%); assay type: functional
A549 [14] = assay: Cell cycle arrest in human A549 cells assessed as accumulation at S phase at 10 uM after 48 hrs by propidium iodide staining based flow cytometry (reference value: 45.31%); assay type: functional
A549 [15] = assay: Induction of apoptosis in human A549 cells assessed as live cells at 10 uM after 48 hrs by Annexin V-FITC/propidium iodide staining based flow cytometry (reference value: 90%); assay type: functional
A549 [16] = assay: Induction of apoptosis in human A549 cells assessed as early apoptotic cells at 10 uM after 48 hrs by Annexin V-FITC/propidium iodide staining based flow cytometry (reference value: 3.6%); assay type: functional
A549 [17] = assay: Induction of apoptosis in human A549 cells assessed as late apoptotic cells at 10 uM after 48 hrs by Annexin V-FITC/propidium iodide staining based flow cytometry (reference value: 6.3%); assay type: functional
A549 [18] = assay: Induction of apoptosis in human A549 cells assessed as necrotic cells at 10 uM after 48 hrs by Annexin V-FITC/propidium iodide staining based flow cytometry (reference value: 0.1%); assay type: functional
A549 [19] = assay: Antitumor activity against human A549 cells xenografted in Balb/c nude mouse assessed sa tumor growth inhibition at 30 mg/kg, iv administered 7 times on day 14, 16, 18, 21, 23, 25, 28 post tumor implantation measured after 1 week relative to control; assay type: functional; settings: read-out: TGI
Mus musculus [20] = assay: Toxicity in Balb/c nude mouse xenografted with human A549 cells assessed as changes in body weight at 5 to 30 mg/kg, iv administered 7 times on day 14, 16, 18, 21, 23, 25, 28 post tumor implantation; assay type: organism-based; settings: in vivo
Mus musculus [21] = assay: Toxicity in Balb/c nude mouse xenografted with human A549 cells assessed as mortality at 5 to 30 mg/kg, iv administered 7 times on day 14, 16, 18, 21, 23, 25, 28 post tumor implantation; assay type: organism-based; settings: in vivo

Sequence of Phosphatidylinositol 4,5-bisphosphate 3-kinase catalytic subunit gamma isoform (Homo sapiens) (P48736 whole entry, looked up, canonical isoform): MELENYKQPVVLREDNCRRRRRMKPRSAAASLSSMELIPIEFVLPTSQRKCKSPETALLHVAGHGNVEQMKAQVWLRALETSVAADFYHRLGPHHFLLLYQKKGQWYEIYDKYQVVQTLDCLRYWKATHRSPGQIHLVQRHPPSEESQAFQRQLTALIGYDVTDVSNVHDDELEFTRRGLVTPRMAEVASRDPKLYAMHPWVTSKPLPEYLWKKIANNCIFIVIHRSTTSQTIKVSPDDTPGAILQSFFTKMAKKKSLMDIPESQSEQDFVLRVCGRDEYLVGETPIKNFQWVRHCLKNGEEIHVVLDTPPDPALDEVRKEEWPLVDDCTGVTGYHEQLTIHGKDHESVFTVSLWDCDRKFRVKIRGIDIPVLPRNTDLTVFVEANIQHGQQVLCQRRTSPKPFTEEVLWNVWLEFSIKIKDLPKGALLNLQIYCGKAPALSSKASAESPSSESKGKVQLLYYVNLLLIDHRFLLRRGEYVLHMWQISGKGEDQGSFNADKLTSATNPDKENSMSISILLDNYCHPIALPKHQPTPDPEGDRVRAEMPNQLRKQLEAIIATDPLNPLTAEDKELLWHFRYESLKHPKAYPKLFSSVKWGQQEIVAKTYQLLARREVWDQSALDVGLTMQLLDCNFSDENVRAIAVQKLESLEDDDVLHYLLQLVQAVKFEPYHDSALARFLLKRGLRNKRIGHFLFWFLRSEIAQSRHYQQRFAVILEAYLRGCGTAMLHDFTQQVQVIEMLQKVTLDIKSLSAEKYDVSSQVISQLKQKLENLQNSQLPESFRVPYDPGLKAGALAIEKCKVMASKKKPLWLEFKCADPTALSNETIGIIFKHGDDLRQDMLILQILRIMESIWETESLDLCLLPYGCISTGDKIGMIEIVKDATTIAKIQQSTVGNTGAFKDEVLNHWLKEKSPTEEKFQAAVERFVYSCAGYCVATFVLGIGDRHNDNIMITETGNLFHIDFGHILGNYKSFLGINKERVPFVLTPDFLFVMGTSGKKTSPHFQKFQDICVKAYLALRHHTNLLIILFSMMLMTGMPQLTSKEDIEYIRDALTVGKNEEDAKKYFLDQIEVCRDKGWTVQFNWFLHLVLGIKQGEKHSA
Sequence of PI3-kinase p110-alpha/p85-alpha (P27986 whole entry): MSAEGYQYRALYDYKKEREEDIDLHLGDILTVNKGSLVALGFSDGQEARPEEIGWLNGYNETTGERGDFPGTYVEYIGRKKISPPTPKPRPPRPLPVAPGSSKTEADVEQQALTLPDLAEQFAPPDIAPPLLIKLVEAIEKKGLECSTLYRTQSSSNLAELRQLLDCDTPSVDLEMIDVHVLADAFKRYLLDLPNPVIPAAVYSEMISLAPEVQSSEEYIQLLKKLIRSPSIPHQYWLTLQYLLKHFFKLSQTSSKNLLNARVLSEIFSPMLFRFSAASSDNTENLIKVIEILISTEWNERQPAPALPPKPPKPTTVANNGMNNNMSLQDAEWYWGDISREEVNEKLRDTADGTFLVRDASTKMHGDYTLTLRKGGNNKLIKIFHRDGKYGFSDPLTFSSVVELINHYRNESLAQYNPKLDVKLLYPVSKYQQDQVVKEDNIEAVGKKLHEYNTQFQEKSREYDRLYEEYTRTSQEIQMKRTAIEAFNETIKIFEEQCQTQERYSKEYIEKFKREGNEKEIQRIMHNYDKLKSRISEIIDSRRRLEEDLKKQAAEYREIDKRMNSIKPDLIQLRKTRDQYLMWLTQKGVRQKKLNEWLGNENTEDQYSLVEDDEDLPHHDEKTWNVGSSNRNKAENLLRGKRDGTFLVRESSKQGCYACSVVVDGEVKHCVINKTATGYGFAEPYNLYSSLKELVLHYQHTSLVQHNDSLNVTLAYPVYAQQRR
Sequence of PI3-kinase p110-alpha/p85-alpha (P42336 whole entry): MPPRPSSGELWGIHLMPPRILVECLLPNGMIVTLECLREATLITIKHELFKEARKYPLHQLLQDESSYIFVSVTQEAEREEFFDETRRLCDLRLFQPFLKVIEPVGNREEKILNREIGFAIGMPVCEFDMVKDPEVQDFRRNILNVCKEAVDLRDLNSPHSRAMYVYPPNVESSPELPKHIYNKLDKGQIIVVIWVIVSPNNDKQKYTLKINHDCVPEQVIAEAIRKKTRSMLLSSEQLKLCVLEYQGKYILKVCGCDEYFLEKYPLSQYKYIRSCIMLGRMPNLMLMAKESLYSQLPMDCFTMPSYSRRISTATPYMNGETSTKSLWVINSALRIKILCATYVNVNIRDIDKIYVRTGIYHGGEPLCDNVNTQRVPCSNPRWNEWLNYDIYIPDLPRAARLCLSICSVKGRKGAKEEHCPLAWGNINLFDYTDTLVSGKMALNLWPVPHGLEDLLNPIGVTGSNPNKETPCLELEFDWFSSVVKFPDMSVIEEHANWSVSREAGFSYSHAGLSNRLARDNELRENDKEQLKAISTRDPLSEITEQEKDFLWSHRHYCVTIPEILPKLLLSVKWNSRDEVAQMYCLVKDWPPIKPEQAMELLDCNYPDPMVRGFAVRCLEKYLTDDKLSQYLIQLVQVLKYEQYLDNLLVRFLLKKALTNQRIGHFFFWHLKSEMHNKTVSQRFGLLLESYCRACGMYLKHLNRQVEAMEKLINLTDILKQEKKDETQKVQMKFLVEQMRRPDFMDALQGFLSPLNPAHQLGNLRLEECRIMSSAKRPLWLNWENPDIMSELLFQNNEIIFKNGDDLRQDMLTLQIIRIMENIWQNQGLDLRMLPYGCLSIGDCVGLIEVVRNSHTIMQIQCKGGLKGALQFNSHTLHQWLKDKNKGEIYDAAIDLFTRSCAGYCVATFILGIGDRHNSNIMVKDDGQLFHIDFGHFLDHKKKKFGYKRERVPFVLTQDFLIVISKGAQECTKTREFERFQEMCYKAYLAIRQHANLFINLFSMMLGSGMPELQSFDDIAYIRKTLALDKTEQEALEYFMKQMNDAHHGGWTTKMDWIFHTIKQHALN
Sequence of PI3K p110 beta/p85 alpha (Homo sapiens) (P27986 2-724 limits assumed): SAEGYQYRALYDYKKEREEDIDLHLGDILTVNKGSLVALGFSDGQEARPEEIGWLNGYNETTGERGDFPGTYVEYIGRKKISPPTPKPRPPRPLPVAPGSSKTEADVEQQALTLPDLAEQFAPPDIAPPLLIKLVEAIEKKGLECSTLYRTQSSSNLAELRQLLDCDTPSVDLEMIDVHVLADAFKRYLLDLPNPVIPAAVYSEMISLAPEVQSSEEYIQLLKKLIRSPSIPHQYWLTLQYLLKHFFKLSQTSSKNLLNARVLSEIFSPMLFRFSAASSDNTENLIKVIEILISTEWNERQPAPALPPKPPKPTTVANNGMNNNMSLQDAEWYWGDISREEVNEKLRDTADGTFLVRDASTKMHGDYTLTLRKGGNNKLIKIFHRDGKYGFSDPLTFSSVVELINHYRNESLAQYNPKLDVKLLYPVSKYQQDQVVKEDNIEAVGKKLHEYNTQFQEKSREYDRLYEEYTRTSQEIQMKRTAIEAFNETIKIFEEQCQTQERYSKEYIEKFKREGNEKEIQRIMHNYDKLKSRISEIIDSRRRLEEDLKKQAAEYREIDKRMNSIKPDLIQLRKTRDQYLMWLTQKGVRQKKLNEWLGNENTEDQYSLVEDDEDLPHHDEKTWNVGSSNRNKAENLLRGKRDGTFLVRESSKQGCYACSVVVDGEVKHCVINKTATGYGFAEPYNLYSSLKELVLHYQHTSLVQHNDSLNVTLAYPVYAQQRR
Sequence of PI3K p110 beta/p85 alpha (Homo sapiens) (P42338 whole entry partner, canonical isoform): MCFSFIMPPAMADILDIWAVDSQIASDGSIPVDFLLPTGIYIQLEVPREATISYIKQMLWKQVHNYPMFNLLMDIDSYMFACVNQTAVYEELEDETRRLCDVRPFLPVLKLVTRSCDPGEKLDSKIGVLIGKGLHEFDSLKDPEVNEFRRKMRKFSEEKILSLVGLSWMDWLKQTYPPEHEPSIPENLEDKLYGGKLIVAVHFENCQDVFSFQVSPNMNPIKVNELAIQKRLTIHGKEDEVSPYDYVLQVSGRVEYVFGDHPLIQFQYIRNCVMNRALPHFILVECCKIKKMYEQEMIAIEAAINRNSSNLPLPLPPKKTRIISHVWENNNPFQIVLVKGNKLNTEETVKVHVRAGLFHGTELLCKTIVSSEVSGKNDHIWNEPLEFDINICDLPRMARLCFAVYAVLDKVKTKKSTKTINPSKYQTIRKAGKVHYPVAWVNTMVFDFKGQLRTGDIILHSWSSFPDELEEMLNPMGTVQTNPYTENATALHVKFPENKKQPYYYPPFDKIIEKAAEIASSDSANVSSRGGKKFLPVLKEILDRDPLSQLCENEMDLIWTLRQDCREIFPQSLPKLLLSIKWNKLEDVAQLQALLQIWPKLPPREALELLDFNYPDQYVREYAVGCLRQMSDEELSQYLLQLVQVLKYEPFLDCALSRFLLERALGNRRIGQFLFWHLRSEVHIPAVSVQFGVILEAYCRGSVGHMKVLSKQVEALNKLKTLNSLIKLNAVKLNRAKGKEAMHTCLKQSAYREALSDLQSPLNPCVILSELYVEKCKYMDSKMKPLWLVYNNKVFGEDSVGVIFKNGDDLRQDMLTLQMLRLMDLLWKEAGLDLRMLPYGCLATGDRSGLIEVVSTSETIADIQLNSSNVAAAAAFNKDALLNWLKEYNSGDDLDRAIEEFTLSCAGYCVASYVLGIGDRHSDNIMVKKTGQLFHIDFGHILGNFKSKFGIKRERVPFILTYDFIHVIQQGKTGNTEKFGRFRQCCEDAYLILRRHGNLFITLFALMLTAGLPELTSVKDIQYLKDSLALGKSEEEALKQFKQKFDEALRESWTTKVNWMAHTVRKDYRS

| Structure (SMILES) | IC50 (A549 [1]) [µM] | IC50 (A-375) [µM] | IC50 (MCF7) [µM] | IC50 [2] [µM] | IC50 (NCI-H460) [µM] | IC50 (HEK293) [µM] | inhibition [3] [%] | inhibition [4] [%] | inhibition [5] [%] | inhibition [6] [%] | IC50 [7] [µM] | IC50 [8] [µM] | inhibition [9] | inhibition (A549 [10]) | inhibition (A549 [11]) | Activity (A549 [12]) [%] | Activity (A549 [13]) [%] | Activity (A549 [14]) [%] | Activity (A549 [15]) [%] | Activity (A549 [16]) [%] | also measured |
| --- | --- | --- | --- | --- | --- | --- | --- | --- | --- | --- | --- | --- | --- | --- | --- | --- | --- | --- | --- | --- | --- |
| C[C@H]1COCCN1c1cc(-c2ccc(NC(=O)Nc3ccncc3)cc2)nn2ccnc12 | 0.02 | 5.8 | 13.1 | 7.4 | 0.67 | 5.2 | 64 | 33 | 39 | 29 | 3.11 | 0.062 | Dose-dependent effect | Active | Active | 50.95 | 13.86 | 35.19 | 89.9 | 3.7 | Activity (A549 [17]): 6.3%; Activity (A549 [18]): 0% |
| C[C@H]1COCCN1c1cc(-c2ccc(NC(=O)Nc3cccnc3)cc2)nn2ccnc12 | 0.05 | 11.3 | 40 | 13.5 | 0.47 | 9 | 59 | 24 | 40 | 19 | 4.42 | 0.067 | Dose-dependent effect | Active | Active | 55.32 | 7.61 | 33.07 | 87.8 | 3.5 | Activity (A549 [17]): 8.8%; Activity (A549 [18]): 0%; inhibition in vivo at 30 mg/kg (A549 [19]): 37.8%; Activity (Mus musculus [20]): Non-Toxic; Activity (Mus musculus [21]): Non-Toxic |
